From patent publication US20220054658A1, “CONJUGATES” (Transfection Holdings Limited, priority 2018, published 2022)
Entries after “also recorded” stand apart in the source; their conditions may differ.

Experiments:
[1] = test system: mixed culture of wild type nematodes (roundworms, tape worms and flukes); experiment: Nematode testing: mixed culture of wild type nematodes; type: in vivo; settings: 20 h incubation
Description: A mixed culture of wild type nematodes (roundworms, tape worms and flukes), obtained from Massey University's sheep farm, were incubated for 20 h with compound 14, compound and commercially available ivermectin B1a, as a control. The protocol followed is the same as the C. elegans protocol used previously.

[2] = test system: gastrointestinal system (crop, midgut and rectum) of adult honey bees; experiment: Honey bee gut uptake test; design: species or system Apis mellifera; settings: 100 μM, 33° C., 45 min
Description: Honey bee (A. mellifera) hives were obtained and allowed to feed ab libitum spring to autumn. During the winter period, pollen mixed with 50% (v/v) sucrose was added to the honey bee hives in order to provide sufficient food. Honey bees were dissected and gastrointestinal system was removed including the crop, midgut and rectum, and added immediately to 500 μL of the delivery vehicle to be tested sample diluted with PBS at 100 μM final concentration or DMSO (0.1%) control. The mixture was incubated for 45 min at 33° C.
The gastrointestinal system (crop, midgut and rectum) of adult honey bees was extracted, and incubated with derivatives 1, 2, 8 and 11 at 100 μM and 33° C. for 45 min.

[3] = test system: L. passim strain PRA-403; experiment: Lotmaria passim parasite uptake test; type: cell-based; settings: room temperature, 45 min
Description: 100 mM stock solutions of BODIPY derivatives were prepared with dimethylsulfoxide (DMSO). L passim strain PRA-403 (ATCC) was cultured in modified medium for C. bombi (Tognazzo et al.). The parasite culture was centrifuged, supernatant was removed and 500 μL of L passim medium with compound (final concentration 500, 100, 10 or 1 μM for BODIPY derivatives) or DMSO (0.1%) control was added. Incubated for 45 min at room temperature.
Uptake tests were performed at 1 μM and 100 μM final concentration of CJ-BODIPY derivatives. After incubation at room temperature for 45 min, fluorescence intensities were evaluated using a microplate reader.

[4] = test system: C. elegans; experiment: Conjugate uptake in C. elegans (dye and praziquantel conjugates, fluorescence microscopy); type: in vivo, Caenorhabditis elegans; settings: 50 μM
Description: Nematode Growth Media (NGM) plates containing C. elegans were washed with 1.0-1.5 mL of standard M9 buffer and the washes were collected in an Eppendorf tube. The liquid containing the C. elegans was then spun for 1 min at room temperature at 10,000 rpm. The supernatant was removed, and fresh M9 buffer was added (500 μL) to generate a new stock solution of M9 buffer containing the C. elegans.
A C. elegans suspension (100 μL) was added a defined amount of M9 buffer (determined by the final desired concentration of compound to be tested: 399 μL in the case of the BODIPY tagged derivatives) contained within a separate Eppendorf tube. To this was then added a 25 mM solution of the compound in DMSO (1 μL). The resulting suspension was mixed using a vortex instrument.
The resulting mixture was incubated at room temperature for 2 to 4 h. in the dark (using aluminium foil to screen the tube, which was also stored in a cabinet).
Other samples were incubated overnight. Here, OP50 bacteria (3 μL) were added to the worms for feeding purposes, and the worms were kept in the dark at 20° C.
After the incubation, the tube contents were mixed gently by hand (typically by simple rotation of the tube), so as to achieve a homogenous suspension. A sample of the suspension (250 μL) was taken and mixed with M9 buffer (500 μL). The resulting suspension was placed in a centrifuge and spun at room temperature at 10,000 rpm for 1 min. The supernatant was removed, and the washing process was repeated twice more, each time using further quantities of fresh M9 buffer (500 μL each time). After the final washing sufficient supernatant was removed so as to leave a final sample volume of approximate 30 μL.
A 1.5% agarose solution in water was pre-warmed for 60 to 90 s. in a standard household style microwave (set to Power 4). Two drops of this solution was removed and placed on a glass slide. The glass slide was covered with a second glass slide. After 1 min., the slides were slid carefully apart, with the agarose remaining on one of the slides. Onto this slide was placed an aliquot of the final C. elegans solution (15 to 20 μL). To this was added a 20 mM sodium azide solution (5 μL) to inhibit nematode mobility. Vaseline was then placed around the agarose area before replacing the second slide. The slides were not pressed together.
The nematodes were then analysed using a Zeiss Axiskop 2 Plus microscope with a Hamamatsu Orca-ER (CA 742-95) camera. The images were resolved using OpenLab on a Mac operating system.
Compounds 1-11 were evaluated after 3 h and overnight incubation at a 50 μM concentration using the general uptake protocol described for C. elegans.
In order to compare the ability of a conjugate to improve the uptake of the drug praziquantel, two praziquantel derivatives were generated. Praziquantel was tagged with a BODIPY fluorescent tag (compound 12) and incorporated into a conjugate of the invention (compound 13). Compounds 12 and 13 were evaluated at a concentration of 50 μM using the C. elegans uptake protocol described above for compounds 1-11. Microscopic readings were taken after 3, 24 and 72 h.

[5] = test system: B. bovis Texas strain; experiment: Short-term uptake test in B. bovis infected RBCs (confocal microscopy); settings: 25 μM, 37° C., 45 min, ~5% PPE
Description: The parasite culture was centrifuged and washed once with GIT medium. RBC's were pellet down, and 20 μl infected RBC mixture (10 μl packed infected RBC+10 μl GIT) was prepared. Then, 180 μl GIT medium with compound the compound to be evaluated (final concentration 25 μM for BODIPY derivatives and 100 μM for phiLOV derivatives) or DMSO (0.1%)/PBS control was added. The samples were incubated for 45 min at 37° C. (Samples were stained 1 μg/mL diluted Hoechst 33342 in GIT medium). After incubation, the samples were centrifuged and the pellet was washed with GIT medium (3×). A final solution of 50% haematocrit infected RBC mixture was transferred to slides to be observed by confocal laser microscopy (Nikon A1).
Uptake experiments were performed by incubating the parasite (˜5% Parasitized Erythrocytes (PPE)) with each derivative at 25 μM and 37° C. for 45 min. After incubation, the fluorescence intensities were calculated from confocal microscope images.
The phiLOV double mutant (R475G, K476C) was used to generate derivatives P11, P1, P8, and P3 which were tested for uptake in B. bovis Texas strain using phiLOV as a control. The derivatives and the control were incubated at 100 μM and 37° C. for 45 min. After incubation, the samples were analysed under confocal microscopy using Hoeschst 33342 (Thermofisher) as co-stain.

[6] = test system: M. tuberculosis strain H37Rv; experiment: Uptake test in M. tuberculosis; type: cell-based, Mycobacterium tuberculosis; settings: 50 μg/mL (~80 μM), room temperature, 45 min
[7] = test system: T. brucei; experiment: Trypanosoma brucei testing: uptake; type: cell-based; settings: 10-25 μM, 45 minutes, 37° C.
[8] = test system: P. falciparum; experiment: Plasmodium falciparum testing: uptake by infected and non-infected red blood cells; type: cell-based; settings: 25 μM, 45 minutes, 37° C., synchronised stage and mix-stage cultures
Description: Compounds 1, 5, 9, 10 and 11 were tested for uptake in both synchronised stage and mix-stage cultures at 25 μM concentrations.

[9] = test system: T. annulata; experiment: Theileria annulata testing: uptake; type: cell-based; settings: 1 hour, 37° C.
Description: T. annulata were cultured using RPMI 1640 with 10% Albumax II (Thermo-Fisher) serum. A standard hemocytometer was used to calculate the concentration of cells in the parent culture. […] For each compound and concentration to be tested, 2 mL of the culture were centrifuged at 1,000 rpm for 5 minutes. The medium was removed before the cells were resuspended in 950 μL of complete medium containing the compound to be tested at the desired concentration. This was prepared from a 100 mM stock solution of compound in DMSO. Once the cells were resuspended they were transferred to a 5 well plate (1 mL capacity per well). They were then incubated for 1 hour at 37° C. in an atmosphere of 5% CO2 in air. After the incubations were complete the contents of each well were transferred to a 10 mL centrifuge tube. Cold RPMI 1640 (Thermofisher) or HBSS added to obtain a volume of 5 mL. The suspension was then centrifuged at 1,000 rpm and at 4° C. for 5 minutes. […] After the final washing the pellet of cells was resuspended in a minimum amount of RPMI 1640 and then spotted onto a glass slide. The slide was then covered with a cover slip and analysed using Olympus BX60 UV microscope system with a Spot RT3 camera and Spot Image software with a FITC fluorescent filter.

Compound	concentration at which nematodes showed paralysis [1]	fluorescence in honey bee gut (crop, midgut, rectum) [2]	uptake: location of fluorescence in C. elegans ([4]; 3 h incubation)	uptake: location of fluorescence in C. elegans ([4]; 20 h / overnight incubation)	uptake compared to compound 1 (% less) [5]	uptake in M. tuberculosis (fluorescence intensity / microscopy) [6]	uptake compared to other compounds ([4]; 20 h incubation)	uptake by infected and non-infected red blood cells [8]	uptake in T. annulata [9]	other results
4″-O—[(R,Z)-3-(2,2,5,5-Tetramethyl-1,3-dioxane-4-carboxamido)acrylate]avermectin B1a [Compound 14]	5 µM	–	–	–	–	–	–	–	–	activity against nematodes relative to ivermectin B1a [1]: enhanced activity against nematodes relative to commercially available ivermectin B1a
CC1=CC(C)=[N+]2C1=Cc1ccc(CCCn3cc(CCNC(=O)/C=C\NC(=O)[C@H]4OC(C)(C)OCC4(C)C)nn3)n1[B-]2(F)F [Compound 2, (Z)—N-((((3-[4,4-Difluoro-5,7-dimethyl-4-bora-3a,4a-diaza-s-indacene-3-yl]propyl)-1H-1,2,3-triazol-4-yl)ethylamino)-3-oxoprop-1-enyl)-2,2,5,5-tetramethyl-1,3-dioxane-4-carboxamide]	–	slight fluorescence in midgut and rectum, but none in the crop; also recorded: localised on the surface of the gut, but not inside of it	traces of compound 2 were observed in the pharynx, gut cells and gut lumen of the larval stages	fluorescence was localised in the gut cells, gut lumen and to a lesser extent within the pharynx of the larvae	90%	preferred over their S counterparts; also recorded: highest fluorescence signals; also recorded: fluorescence is localised at the poles	–	–	–	uptake in L. passim (fluorescence intensity, microplate reader) ([3]; 1 μM and 100 μM): highest reading amongst all the compounds tested; uptake in L. passim (fluorescence microscopy) ([3]; 500 μM): exhibited fluorescence in the parasite's cytosol, with the derivative forming fluorescence dots; fluorescence intensity compared to compound 1 [6]: around 2.5 times
CC1=CC(C)=[N+]2C1=Cc1ccc(CCCn3cc(CCNC(=O)CCNC(=O)[C@H](O)C(C)(C)CO)nn3)n1[B-]2(F)F [Compound 9, (R)—N-((((3-[4,4-Difluoro-5,7-dimethyl-4-bora-3a,4a-diaza-s-indacene-3-yl]propyl)-1H-1,2,3-triazol-4-yl)ethylamino)-3-oxopropyl)-2,4-dihydroxy-3,3-dimethylbutanamide]	–	–	traces of compound 9 were visible in the get cells and to a lesser extent 30 in the pharynx of both the larvae and the adult nematodes	small amounts of fluorescence could be detected in the gut cells of both larval and adult stages	–	–	the amount of fluorescence was lower than the enamide derivatives, compounds 1 to 8	taken up very quickly by both infected and non-infected erythrocytes, with very little difference in uptake between the two sets of red blood cells	taken up by T. annulata; also recorded: taken up more rapidly and fluorescence can be detected at lower concentrations albeit it is also present in the infected lymphocyte	uptake compared to other compounds ([4]; 3 h incubation): the amount of fluorescence was lower than the enamide derivatives, compounds 1 to 8; uptake in T. brucei [7]: taken up much more rapidly and in much higher concentrations than compound 5; also recorded: spread throughout the cell
CC1=CC(C)=[N+]2C1=Cc1ccc(CCCn3cc(CCNC(=O)CCNC(=O)[C@@H]4OC(C)(C)OCC4(C)C)nn3)n1[B-]2(F)F [Compound 10, (R)—N-((((3-[4,4-Difluoro-5,7-dimethyl-4-bora-3a,4a-diaza-s-indacene-3-yl]propyl)-1H-1,2,3-triazol-4-yl)ethylamino)-3-oxopropyl)-2,2,5,5-tetramethyl-1,3-dioxane-4-carboxamide]	–	–	traces of compound 10 were detected in the gut cells and gut lumen of the larvae; also recorded: also visible to a lesser degree in the pharynx of the larvae	fluorescence was visible in the gut cells and in a smaller amount in the pharynx of the larval stages	–	minimal uptake	comparable with the enamide compounds showing the least uptake	not taken up to any visible extent	very limited uptake	–
CC1=CC(C)=[N+]2C1=Cc1ccc(CCCN=[N+]=[N-])n1[B-]2(F)F [Compound 11, 3-Azido[4,4-difluoro-5,7-dimethyl-4-bora-3a,4a-diaza-s-indacene-3-yl]propane, reference compound]	–	showed only autofluorescence	slight fluorescence after 3 h, focalized in the gut lumen and gut cells	no significant increase in fluorescence even after 20 h incubation	90%	–	–	diffused into every red blood cell (both infected and non-infected)	diffused indiscriminately	–
CC[C@H](C)[C@H]1O[C@]2(CC[C@@H]1C)C[C@@H]1C[C@@H](C/C=C(\C)[C@@H](O[C@H]3C[C@H](OC)[C@@H](O[C@H]4C[C@H](OC)[C@@H](O)[C@H](C)O4)[C@H](C)O3)[C@@H](C)/C=C/C=C3\CO[C@@H]4[C@H](O)C(C)=C[C@@H](C(=O)O1)[C@]34O)O2 [ivermectin B1a, reference compound]	50 µM	–	–	–	–	–	–	–	–	–
